The record followed here is US10100010B1, “4-methoxy pyrrole derivatives or salts thereof and pharmaceutical composition comprising the same” (Daewoong Pharmaceutical Co., Ltd., priority 2015, dated 2018).

Where a name gives a salt, the structure may show the parent alone.

Holding throughout (type): cell-based
The target of one assay is 5-HT2A (Homo sapiens, UniProt P28223). Kind of assay: GPCR Calcium Flux assay (FLIPR tetra, Eurofins), 5-HT2A. Conditions: for inhibition at 10 µM: single concentration of 10 uM, read-out: inhibition rate (%) 5-HT2A; for IC50: 8 concentrations 10 to 0.0006 uM, read-out: 50% inhibitory concentration (IC50) 5-HT2A. The protocol:
(§1) In order to confirm whether the compounds prepared in the above Examples act as an agonist or antagonist against GPCR Target, Calcium Flux assay was performed in an assay plate in which the compounds prepared in the Examples, vehicle controls, and reference compounds were added, using a Fluorometric imaging plate reader (FLIPR tetra) equipment.
(§2) Calcium Flux assay was evaluated by entrusting the GPCR profiler assay in Safety panel assays with Eurofins. By using the Fluo-8AM calcium dye, excitation was measured at a wavelength in the range of 470 to 495 nm and Emission was measured at a wavelength in the range of 515-575 nm. GPCR Assay Buffer for Calcium Flux assay was prepared by adding 20 mM of HEPES and 2.5 mM of Probenecid to Hanks Balanced Salt Solution (HBSS) to have pH 7.4. The Compounds of Examples for evaluation of the GPCR were diluted with DMSO at a concentration of 10 mM to make a stock and then prepared by diluting in the GPCR Assay Buffer at the concentration equivalent to three times the final concentration. First, for the evaluation of GPCRs, the inhibitory activity of the compounds of the Examples was evaluated at a single concentration of 10 uM, and then the respective selected targets were four fold-diluted from 10 uM to the low side to calculate 50% inhibitory concentration (IC50), prepared at the total 8 concentrations of 10, 2.5, 0.62, 0.15, 0.04, 0.01, 0.0024, 0.0006 uM, and Calcium Flux assay for GPCR was conducted. In order to evaluate the agonist and antagonist, % inhibition rate against GPCR activity before and after treatment of the compounds and the inhibitory activity of the compounds of the Examples were determined.
(§3) As a result, when the efficacy of […] and acetylcholine of the compounds prepared in the Examples was 100%, the inhibition rate (%) at a single concentration of 10 uM was evaluated and shown in Table 8.

A further assay addresses T1, M1 (Homo sapiens, UniProt P11229).
T1 sequence (P11229 1-460): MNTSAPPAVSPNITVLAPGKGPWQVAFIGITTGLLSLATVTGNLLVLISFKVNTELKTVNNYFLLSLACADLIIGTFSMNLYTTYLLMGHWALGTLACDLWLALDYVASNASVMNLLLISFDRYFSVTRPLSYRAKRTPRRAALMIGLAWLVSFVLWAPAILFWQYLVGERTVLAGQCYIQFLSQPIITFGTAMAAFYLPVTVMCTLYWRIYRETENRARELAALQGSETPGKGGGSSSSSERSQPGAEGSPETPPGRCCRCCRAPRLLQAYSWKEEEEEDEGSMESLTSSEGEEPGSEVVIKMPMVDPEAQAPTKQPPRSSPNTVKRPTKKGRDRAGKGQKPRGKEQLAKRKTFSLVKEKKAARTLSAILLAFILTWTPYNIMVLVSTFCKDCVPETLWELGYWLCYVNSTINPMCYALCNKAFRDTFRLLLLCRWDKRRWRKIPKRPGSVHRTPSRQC
Kind of assay: GPCR Calcium Flux assay (FLIPR tetra, Eurofins), M1. Conditions: for IC50: 8 concentrations 10 to 0.0006 uM, read-out: 50% inhibitory concentration (IC50) M1; for inhibition at 10 µM: single concentration of 10 uM, read-out: inhibition rate (%) M1. The protocol: as §1, §2, §3

The target in another assay is T2, M2 (Homo sapiens, UniProt P08172).
T2 sequence (P08172 1-466): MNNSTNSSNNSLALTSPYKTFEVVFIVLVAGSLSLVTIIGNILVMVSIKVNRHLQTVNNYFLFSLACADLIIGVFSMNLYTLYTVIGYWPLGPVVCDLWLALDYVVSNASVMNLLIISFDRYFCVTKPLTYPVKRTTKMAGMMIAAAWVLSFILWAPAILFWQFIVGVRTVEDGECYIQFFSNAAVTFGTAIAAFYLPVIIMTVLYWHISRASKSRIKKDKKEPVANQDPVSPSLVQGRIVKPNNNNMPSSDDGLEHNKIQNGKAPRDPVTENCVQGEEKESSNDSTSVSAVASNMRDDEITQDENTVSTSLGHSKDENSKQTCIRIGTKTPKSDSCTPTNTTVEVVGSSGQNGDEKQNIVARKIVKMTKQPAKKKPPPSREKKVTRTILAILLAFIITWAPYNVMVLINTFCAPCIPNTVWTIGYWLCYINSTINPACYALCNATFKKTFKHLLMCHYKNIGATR
In words: GPCR Calcium Flux assay (FLIPR tetra, Eurofins), M2. Conditions: for inhibition at 10 µM: single concentration of 10 uM, read-out: inhibition rate (%) M2. The protocol:
as §1, §2, §3

5-HT2A, sequence (P28223 whole entry): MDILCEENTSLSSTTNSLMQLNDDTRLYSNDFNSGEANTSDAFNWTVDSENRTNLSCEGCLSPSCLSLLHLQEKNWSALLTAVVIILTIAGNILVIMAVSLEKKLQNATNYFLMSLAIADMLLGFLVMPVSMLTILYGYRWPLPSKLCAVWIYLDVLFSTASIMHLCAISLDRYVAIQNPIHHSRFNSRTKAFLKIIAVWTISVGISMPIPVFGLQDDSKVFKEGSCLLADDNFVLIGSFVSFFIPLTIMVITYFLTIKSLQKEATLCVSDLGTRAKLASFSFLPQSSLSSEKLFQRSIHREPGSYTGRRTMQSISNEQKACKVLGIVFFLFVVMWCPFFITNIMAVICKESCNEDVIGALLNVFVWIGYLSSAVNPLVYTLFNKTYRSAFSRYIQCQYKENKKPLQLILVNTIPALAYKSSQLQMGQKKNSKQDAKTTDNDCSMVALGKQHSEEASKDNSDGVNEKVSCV

On to `CNCc1cn(S(=O)(=O)c2cccc(OC)c2)c(-c2c(F)ccc(F)c2F)c1OC` [Example 30, 1-(1-((3-methoxyphenyl)sulfonyl)-4-methoxy-5-(2,3,6-trifluorophenyl)-1H-pyrrol-3-yl)-N-methylmethanamine hydrochloride], for which the results for the inhibition at 10 µM on 5-HT2A, at M1 and at M2 were 100%, 94.3% and 43%, respectively. Moreover, on M1, the IC50 stood at 1.4 µM.

For `CNCc1cn(S(=O)(=O)c2cccc(F)c2)c(-c2cc(F)ccc2F)c1OC` [Example 31, 1-(5-(2,5-difluorophenyl)-1-((3-fluorophenyl)sulfonyl)-4-methoxy-1H-pyrrol-3-yl)-N-methylmethanamine hydrochloride], the values for the IC50 at 5-HT2A and on M1 were 0.042 µM and 0.073 µM, respectively. Besides, the inhibition at 10 µM on 5-HT2A came out at 101%; on M1, 100%; at M2, 98.6%.

In the case of `CNCc1cn(S(=O)(=O)c2ccc(F)c(F)c2)c(-c2c(F)cc(F)cc2F)c1OC` [Example 26, 1-(1-((3,4-difluorophenyl)sulfonyl)-4-methoxy-5-(2,4,6-trifluorophenyl)-1H-pyrrol-3-yl)-N-methylmethanamine hydrochloride], the results for the inhibition at 10 µM on 5-HT2A, at M1 and at M2 were 99%, 101% and 89.2%, respectively.

Consider `CNCc1cn(S(=O)(=O)c2cccc(Cl)c2)c(-c2ccccc2F)c1OC` [Example 1, 1-(5-(2-fluorophenyl)-4-methoxy-1-((3-chlorophenyl)sulfonyl)-1H-pyrrol-3-yl)-N-methylmethanamine hydrochloride], for which the IC50 on 5-HT2A was 0.25 µM; at M1 it was 1.7 µM. Also, the inhibition at 10 µM at 5-HT2A came to 96.4%; at M1, 99.6%; at M2, 66.5%.

Regarding `CNCc1cn(S(=O)(=O)c2cccc(C(F)(F)F)c2)c(-c2cc(F)ccc2F)c1OC` [Example 32, 1-(5-(2,5-difluorophenyl)-1-((3-trifluoromethylphenyl)sulfonyl)-4-methoxy-1H-pyrrol-3-yl)-N-methylmethanamine hydrochloride], the figures for the inhibition at 10 µM at 5-HT2A, on M1 and at M2 were 10.6%, 52.6% and 10.8%, respectively.

With `CNCc1cn(S(=O)(=O)c2cccc(OC)c2)c(-c2ccc(F)cc2F)c1OC` [Example 11, 1-(5-(2,4-difluorophenyl)-1-((3-methoxyphenyl)sulfonyl)-4-methoxy-1H-pyrrol-3-yl)-N-methylmethanamine hydrochloride], the IC50 at 5-HT2A came out at 0.2 µM; at M1 it was 1.8 µM. Moreover, the inhibition at 10 µM on 5-HT2A was 102%; at M1, 97.2%; on M2, 79.4%.

Consider `CNCc1cn(S(=O)(=O)c2cccc(OC(F)F)c2)c(-c2ccccc2F)c1OC` [Example 4, 1-(5-(2-fluorophenyl)-4-methoxy-1-((3-difluoromethoxyphenyl)sulfonyl)-1H-pyrrol-3-yl)-N-methylmethanamine hydrochloride], for which the IC50 on 5-HT2A worked out at 0.85 µM. For the same compound, the inhibition at 10 µM at 5-HT2A worked out at 96%; at M1 it was 55.8%; on M2 it was 22%.

Turning to `CNCc1cn(S(=O)(=O)c2cccc(C(F)(F)F)c2)c(-c2ccc(Cl)cc2F)c1OC` [Example 7, 1-(5-(2-fluoro-4-chlorophenyl)-4-methoxy-1-((3-(trifluoromethyl)phenyl)sulfonyl)-1H-pyrrol-3-yl)-N-methylmethanamine hydrochloride], the results for the inhibition at 10 µM at 5-HT2A, on M1 and at M2 were 42.3%, 65.6% and 0.8%, respectively.

As for `CNCc1cn(S(=O)(=O)c2cccc(OC)c2)c(-c2c(F)cccc2F)c1OC` [Example 17, 1-(5-(2,6-difluorophenyl)-1-((3-methoxyphenyl)sulfonyl)-4-methoxy-1H-pyrrol-3-yl)-N-methylmethanamine hydrochloride], the IC50 at 5-HT2A came out at 2.2 µM. Moreover, the figures for the inhibition at 10 µM at 5-HT2A, on M1 and on M2 were 102%, 85.2% and 60.1%, respectively.

`CNCc1cn(S(=O)(=O)c2cccc(F)c2)c(-c2c(F)cccc2F)c1OC` [Example 13, 1-(5-(2,6-difluorophenyl)-1-((3-fluorophenyl)sulfonyl)-4-methoxy-1H-pyrrol-3-yl)-N-methylmethanamine hydrochloride]: the IC50 was 0.076 µM on 5-HT2A; 0.11 µM at M1; 0.51 µM at M2 (8 concentrations 10 to 0.0006 uM, read-out: 50% inhibitory concentration (IC50) M2). For the same compound, the inhibition at 10 µM came out at 102% on 5-HT2A, 100% on M1 and 99.4% on M2.

`CNCc1cn(S(=O)(=O)c2ccc(F)c(Cl)c2)c(-c2c(F)cccc2F)c1OC` [Example 18, 1-(5-(2,6-difluorophenyl)-1-((3-chloro-4-fluorophenyl)sulfonyl)-4-methoxy-1H-pyrrol-3-yl)-N-methylmethanamine hydrochloride]: the values for the IC50 at 5-HT2A and at M1 were 0.21 µM and about 2.1 µM, respectively. For the same compound, the inhibition at 10 µM amounted to 98.1% at 5-HT2A, 91.2% at M1 and 42.1% on M2.
